According to ChEMBL document CHEMBL1201862, “PubChem BioAssay data set” (2004):
Several values for one entry are separate records, joined by “and”; a condition that tells them apart may be missing. Identical values can stand only once.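 Briefly, cells in 96-well plates were exposed to five compound concentrations for 48 h, and endpoints were estimated by linear interpolation. GI50 marks 50% less growth.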 Activity calls are given as the source filed them. Rule as the data show it: active = GI50 up to about 1.1 µM and inactive = higher. *1 amine or outer side, *2 acyl side, *3 side chain or, on linkers, in order; H or OH if unused. Where a SMILES comes first, the peptide text is derived from it. Bridges are numbered along the chain shown (N, C = ends). Roman numbers before positions name the chains, in order. [ ]: non-standard residue; d: D form. Actinocin(1to9) = Cc1c2oc3c(C)ccc(C(=O)[*:2])c3nc-2c(C(=O)[*:1])c(N)c1=O; NMeY = CN[CH](Cc1ccc(O)cc1)C(=O)O; Sar = CNCC(=O)O

Tests used:
Assay in all cases: DTP human tumour cell line panel, 48 h
786-0 = system: 786-0
A549 = system: A549
ACHN = system: ACHN
BT-549 = system: BT-549
DU-145 = system: DU-145
EKVX = system: EKVX
HCC 2998 = system: HCC 2998
HCT-116 = system: HCT-116
HOP-62 = system: HOP-62
HOP-92 = system: HOP-92
Hs-578T = system: Hs-578T
IGROV-1 = system: IGROV-1
KM12 = system: KM12
LOX IMVI = system: LOX IMVI
M14 = system: M14
MDA-MB-231 = system: MDA-MB-231
NCI-H226 = system: NCI-H226
NCI-H460 = system: NCI-H460
NCI-H522 = system: NCI-H522
NCI/ADR-RES = system: NCI/ADR-RES
OVCAR-3 = system: OVCAR-3
OVCAR-4 = system: OVCAR-4
OVCAR-8 = system: OVCAR-8
PC-3 = system: PC-3
RXF 393 = system: RXF 393
SF-268 = system: SF-268
SF-539 = system: SF-539
SK-MEL-28 = system: SK-MEL-28
SK-MEL-2 = system: SK-MEL-2
SN12C = system: SN12C
SNB-19 = system: SNB-19
SNB-75 = system: SNB-75
SW-620 = system: SW-620
T47D = system: T47D
TK-10 = system: TK-10
U-251 = system: U-251
UACC-257 = system: UACC-257
A498 = system: A498
MDA-MB-435 = system: MDA-MB-435
MDA-N = system: MDA-N
Malme-3M = system: Malme-3M
NCI-H23 = system: NCI-H23
RPMI-8226 = system: RPMI-8226
SF-295 = system: SF-295
SK-MEL-5 = system: SK-MEL-5
UACC-62 = system: UACC-62

Compound | GI50 (A549) | GI50 (ACHN) | GI50 (BT-549) | GI50 (DU-145) | GI50 (HCC 2998) | GI50 (HOP-62) | GI50 (KM12) | GI50 (NCI-H226) | GI50 (OVCAR-3) | GI50 (OVCAR-4) | GI50 (OVCAR-8) | GI50 (PC-3) | GI50 (SF-539) | GI50 (SK-MEL-28) | GI50 (SN12C) | GI50 (SNB-19) | GI50 (SNB-75) | GI50 (SW-620) | GI50 (T47D) | GI50 (UACC-257) | also measured
COc1ccc2[nH]c3c(O)c(-c4c(C)cc5c([nH]c6ccc(OC)cc65)c4O)c(C)cc3c2c1 | 4.05 µM (inactive) | 4.66 µM (inactive) | 4.62 µM (inactive) | 4.43 µM (inactive) | 3.7 µM (inactive) | 4.83 µM (inactive) | 4.24 µM (inactive) | 4.38 µM (inactive) | 4.35 µM (inactive) | 3.88 µM (inactive) | 4.5 µM (inactive) | 4.27 µM (inactive) | 4.86 µM (inactive) | 5.55 µM (inactive) | 4.43 µM (inactive) | 4.69 µM (inactive) | 3.85 µM (inactive) | 4.41 µM (inactive) | 9.86 µM (inactive) | 4.24 µM (inactive) | GI50 (786-0): 4.91 µM (inactive); GI50 (EKVX): 4.09 µM (inactive); GI50 (HCT-116): 4.22 µM (inactive); GI50 (HOP-92): 4.51 µM (inactive); GI50 (Hs-578T): 6.28 µM (inactive); GI50 (IGROV-1): 4.34 µM (inactive); GI50 (LOX IMVI): 4.38 µM (inactive); GI50 (M14): 4.13 µM (inactive); GI50 (MDA-MB-231): 5.74 µM (inactive); GI50 (NCI-H460): 3.98 µM (inactive); GI50 (NCI-H522): 4.93 µM (inactive); GI50 (NCI/ADR-RES): 4.24 µM (inactive); GI50 (RXF 393): 4.84 µM (inactive); GI50 (SF-268): 4.48 µM (inactive); GI50 (SK-MEL-2): 5.41 µM (inactive); GI50 (TK-10): 4.45 µM (inactive); GI50 (U-251): 4.31 µM (inactive)
COc1ccc(CC2C(=O)OC(C)C(NC(=O)c3c4nc5c(C(=O)NC6C(=O)NC(C(C)C)C(=O)N7CCCC7C(=O)N(C)CC(=O)N(C)C(Cc7ccc(OC)cc7)C(=O)OC6C)ccc(C)c5oc-4c(C)c(=O)c3N)C(=O)NC(C(C)C)C(=O)N3CCCC3C(=O)N(C)CC(=O)N2C)cc1 (stereo unspecified) (I: TVP[Sar][NMeY](Me) / II: TVP[Sar][NMeY](Me); ester I:1-I:C, II:1-II:C; linker I:N-II:N via Actinocin(1to9); configuration not given here) | 0.00527 µM (active) | 0.0102 µM (active) | 0.0208 µM (active) | 0.0121 µM (active) | < 10 nM (active) and 8.04 nM (active) | 0.00953 µM (active) | 0.00516 µM (active) | < 10 nM (active) and 14.9 nM (active) | < 10 nM (active) and 9.44 nM (active) | < 0.01 µM (active) | 0.00859 µM (active) | < 10 nM (active) and 10 nM (active) | < 10 nM (active) and 7.08 nM (active) | 0.00964 µM (active) | 0.0053 µM (active) | 0.00637 µM (active) | 0.00764 µM (active) | < 10 nM (active) and 13.6 nM (active) | 0.0094 µM (active) | 0.0155 µM (active) | GI50 (A498): < 10 nM (active) and 14.9 nM (active); GI50 (MDA-MB-435): 0.00923 µM (active); GI50 (MDA-N): 0.00811 µM (active); GI50 (Malme-3M): < 10 nM (active) and 10.6 nM (active); GI50 (NCI-H23): 0.0104 µM (active); GI50 (RPMI-8226): 0.0121 µM (active); GI50 (SF-295): 0.0199 µM (active); GI50 (SK-MEL-5): 0.0119 µM (active); GI50 (UACC-62): 0.0107 µM (active)
